According to ChEMBL document CHEMBL1795317, “Synthesis and antitubercular evaluation of amidoalkyl dibenzofuranols and 1H-benzo[2,3]benzofuro[4,5-e][1,3]oxazin-3(2H)-ones” (Bioorg Med Chem Lett, 2011):
In brackets after ≈: the same amount, converted by molar mass.

Tests used:
[1] = system: Mycobacterium tuberculosis; experiment: Antimicrobial activity against Mycobacterium tuberculosis H37Rv ATCC 27294 after 28 days by agar dilution method; assay type: functional; settings: H37Rv ATCC 27294, 672 h
[2] = Lipophilicity, log P of the compound; assay type: physicochemical; settings: octanol/water

Row | SMILES | MIC [1] | logP [2]
1 | CC(=O)NC(c1ccccc1)c1c(O)ccc2oc3ccccc3c12 (stereo not given) | 6.25 µg/mL (≈ 18.9 µM) | 3
2 | CC(=O)NC(c1ccc(Cl)cc1)c1c(O)ccc2oc3ccccc3c12 (stereo not given) | 6.25 µg/mL (≈ 17.1 µM) | 3.56
3 | CC(=O)NC(c1ccc(Br)cc1)c1c(O)ccc2oc3ccccc3c12 (stereo not given) | 6.25 µg/mL (≈ 15.2 µM) | 3.83
4 | COc1ccc(C(NC(C)=O)c2c(O)ccc3oc4ccccc4c23)cc1 (stereo not given) | 6.25 µg/mL (≈ 17.3 µM) | 2.87
5 | COc1cc(C(NC(C)=O)c2c(O)ccc3oc4ccccc4c23)cc(OC)c1OC (stereo not given) | 12.5 µg/mL (≈ 29.7 µM) | 2.62
6 | O=C(NC(c1ccc(Cl)cc1)c1c(O)ccc2oc3ccccc3c12)c1ccccc1 (stereo not given) | 12.5 µg/mL (≈ 29.2 µM) | 5.46
7 | COc1cc(C(NC(=O)c2ccccc2)c2c(O)ccc3oc4ccccc4c23)cc(OC)c1OC (stereo not given) | 12.5 µg/mL (≈ 25.9 µM) | 4.52
8 | NC(=O)NC(c1ccc(Cl)cc1)c1c(O)ccc2oc3ccccc3c12 (stereo not given) | 3.13 µg/mL (≈ 8.53 µM) | 3.23
9 | NC(=O)NC(c1ccc(Br)cc1)c1c(O)ccc2oc3ccccc3c12 (stereo not given) | 3.13 µg/mL (≈ 7.61 µM) | 3.5
10 | COc1ccc(C(NC(N)=O)c2c(O)ccc3oc4ccccc4c23)cc1 (stereo not given) | 6.25 µg/mL (≈ 17.2 µM) | 2.55
11 | COc1cc(C(NC(N)=O)c2c(O)ccc3oc4ccccc4c23)cc(OC)c1OC (stereo not given) | 12.5 µg/mL (≈ 29.6 µM) | 2.29
12 | O=C1NC(c2ccccc2)c2c(ccc3oc4ccccc4c23)O1 (stereo not given) | 3.13 µg/mL (≈ 9.93 µM) | 3.61
13 | O=C1NC(c2ccc(Cl)cc2)c2c(ccc3oc4ccccc4c23)O1 (stereo not given) | 1.56 µg/mL (≈ 4.46 µM) | 4.16
14 | O=C1NC(c2ccc(Br)cc2)c2c(ccc3oc4ccccc4c23)O1 (stereo not given) | 1.56 µg/mL (≈ 3.96 µM) | 4.43
15 | COc1ccc(C2NC(=O)Oc3ccc4oc5ccccc5c4c32)cc1 (stereo not given) | 6.25 µg/mL (≈ 18.1 µM) | 3.48
16 | COc1cc(C2NC(=O)Oc3ccc4oc5ccccc5c4c32)cc(OC)c1OC (stereo not given) | 12.5 µg/mL (≈ 30.8 µM) | 3.23
17 | CC[C@@H](CO)NCCN[C@@H](CC)CO [ETHAMBUTOL] | 3.13 µg/mL (≈ 15.3 µM) | 
18 | NNC(=O)c1ccncc1 [ISONIAZID] | 0.1 µg/mL (≈ 0.729 µM) | 
19 | NC(=O)c1cnccn1 [PYRAZINAMIDE] | 50 µg/mL (≈ 406 µM) | 
